One test deals with Ba/F3 ERBB2 YVMA (Homo sapiens, UniProt P04626, DUP772-775, cells depend on it). In words: Cell viability assay (CellTiter Glo) in Ba/F3 cells engineered to express ERBB2 YVMA. Format: cell-based, mouse. The following applies: Ba/F3 cells expressing human ERBB2 YVMA mutant, 72 hours, % viability, read-out: Ba/F3 ERBB2 YVMA IC50. The method, then:
Cells were treated with compounds, and cell viability was measured as a metric of kinase inhibition.
The Ba/F3 cell line is IL-3-dependent mouse cell line derived from the C3H mouse strain. Ba/F3 cell lines were engineered to express human ERBB2 or EGFR kinases, rendering the cells IL-3 independent. The lines were generated via retroviral transduction utilizing a Moloney murine leukemia virus (MMLV) promoter, and constructs are stably integrated into the cell genome. The sequences of the ERBB2 and EGFR genes used were NCBI Reference Sequences NM_004448.3 and NM_005228.3, respectively.
Similarly, Ba/F3 cell lines engineered to express EGFR, ERBB2, or ERBB2 mutants were grown, harvested, counted and seeded at 3000 cells per well in 96-well plates for the data sets shown in Tables B3-B4. A subset of wells contained media only (low control, “LC”).
Table B1 provides the growth media and number of cells seeded per well for the each cell line.
Compounds were dissolved in DMSO and serially diluted. Serially-diluted compound or a DMSO only control (high control, “HC”) was added to the plated cells in each well. […] The final proportion of DMSO never exceeded 0.1%.
Plates were placed in a 37° C., 5% CO2 incubator for 72 hours. Plates were then removed from the incubator and equilibrated for 15 minutes at room temperature. 40 μl of CellTiter Glo reagent (Promega) was added to measure the relative level of metabolically active cells by quantifying intracellular ATP concentrations. Plates were incubated for 30 minutes at room temperature, and luminescence was measured. Percent viability was normalized to a vehicle control only using the following formula: % viability=100×(Lumsample−LumLC)/(LumHC−LumLC). Graphical curves were fitted using a nonlinear regression model with a sigmoidal dose response.
On the technique in general: In ATP-based viability assays light output follows the ATP content of the culture.

Test [1] has as its target T1, phosphorylated EGFR (pEGFR) (Homo sapiens, UniProt P00533).
T1 construct: performed to measure phosphorylated EGFR levels using A431 cells; endogenous in cells; host or cells: A431
In words: Detection of phosphorylated EGFR (pEGFR) in EGF-stimulated A431 cells (AlphaLISA). The following applies: A431 cells (10% FBS), 4 hours incubation, EGF 30 ng/mL for 10 minutes. Format: cell-based. On the procedure:
Enzyme-linked immunosorbent assays (ELISA) were performed to measure phosphorylated EGFR levels using A431 cells (10% FBS). A431 (1.0*10^4 cells/40 μl/well) cells were seeded in 384 well. Compounds were dissolved in DMSO, serially diluted in DMSO and then were added, mixed, and incubated for 4 hours at 37° C., 5% CO2. Following the 4-hours incubation, cells were stimulated for 10 minutes with EGF (Invitrogen, cat #PHG0311) at a final concentration of 30 ng/mL in the incubator. The media was aspirated and cells were lysed in 10 μL lysis buffer with protease and phosphatase inhibitors (PerkinElmer, cat #ALSU-PEGFR-A50K). The plates were placed on a shaker for 5 minutes and then incubated for 30 min at 4° C. for complete lysis. The lysate was transferred to an Optiplate (Perkin Elmer, cat #6007290).
Acceptor mix (PerkinElmer, cat #ALSU-PEGFR-A50K) was prepared just before use and 5 μL was dispensed to all the wells, followed by a 1.5-2 h incubation at room temperature in dark. The donor mix (PerkinElmer, cat #ALSU-PEGFR-A50K) was prepared under low light conditions prior to use and 5 μl of donor mix was added to all the wells under subdued lighting or green filters. The plates were placed on a shaker for 5 min, sealed, and incubated overnight at room temperature in dark. Plates were read on the Envision (PerkinElmer) using standard AlphaLISA settings.
The percentage of inhibition on EGFR phosphorylation was calculated following equation: % Inhibition=100×(LumHC−LumSample)/(LumHC−LumLC). The low and high controls (LC/HC) are generated from lysate from wells with cells treated with DMSO or […] Staurosporine (BioAustralis, cat #BIA-S1086), […]. IC50 values were calculated by fitting the Curve using XLfit (v5.3.1.3), equation 201: Y=Bottom+ (Top−Bottom)/(1+10^((LogIC50−X)*HillSlope)).
In general terms: Bead proximity is the source of the signal in Alpha formats.

In test [2] the target is T2, phosphorylated ERBB2 (pERBB2) (Homo sapiens, UniProt P04626).
T2 construct: endogenous in cells; host or cells: BT-474
In words: Detection of phosphorylated ERBB2 (pERBB2) by ELISA in BT-474 cells. Format: cell-based. The following applies: four hour incubation with compound. On the procedure:
BT-474 cells were seeded into a 96-well at 2.0*10^4 cells/100 μl/well. Compounds were dissolved and serially diluted in DMSO. The compounds were then were added, mixed, and incubated for four hours at 37° C., 5% CO2. Compounds were added using four-fold dilutions at final concentrations ranging from 10 μM to 0.01 nM. Following the four hour incubation with compounds, cell lysates were prepared. Plates were centrifuged for 5 min at 3000 RPM, and supernatant was removed from each well. Cells were washed 3 times by resuspension in 150 μl PBS, followed by centrifugation and removal of the supernatant, as above. […] Cells were incubated with lysis buffer for 1 hour at 4° C., and then stored at -80° C. Enzyme-linked immunosorbent assays (ELISA) were performed to measure phosphorylated ERBB2 levels. […] The next day, plates were washed with PBS+0.05% Tween20 (PBST). 150 μl of 5% BSA blocking solution was added for 1 hour at room temperature, with shaking. Plates were washed with PBST. Cell lysates were thawed and 100 μl of lysate was added to the ELISA plate. The plates were incubated for 2 hours at room temperature, with shaking. […] Plates were incubated for 1 hour at room temperature, with shaking. Plates were then washed with PBST, and 100 μl TMB substrate solution (R&D Systems, cat #DY999) was added. Plate were incubated in the dark for 20 minutes at room temperature. 50 μl of Stop solution (R&D Systems, cat #DY994) (50 μl) was added to each well and mixed. Optical density at 450 nm was read on an EnSpire plate reader (Perkin Elmer). The remaining kinase activity by calculated using the following formula: % Relative activity=100×([…]). The low and high control values (“LC” and “HC”) were generated from lysate from wells without cells or with cells treated with 0.1% DMSO, respectively.
Background: In an ELISA, binding on a coated surface is turned into a signal by an enzyme label.

Structures are written as SMILES. Some results are limits rather than exact numbers.

T2 sequence (P04626 23-1255): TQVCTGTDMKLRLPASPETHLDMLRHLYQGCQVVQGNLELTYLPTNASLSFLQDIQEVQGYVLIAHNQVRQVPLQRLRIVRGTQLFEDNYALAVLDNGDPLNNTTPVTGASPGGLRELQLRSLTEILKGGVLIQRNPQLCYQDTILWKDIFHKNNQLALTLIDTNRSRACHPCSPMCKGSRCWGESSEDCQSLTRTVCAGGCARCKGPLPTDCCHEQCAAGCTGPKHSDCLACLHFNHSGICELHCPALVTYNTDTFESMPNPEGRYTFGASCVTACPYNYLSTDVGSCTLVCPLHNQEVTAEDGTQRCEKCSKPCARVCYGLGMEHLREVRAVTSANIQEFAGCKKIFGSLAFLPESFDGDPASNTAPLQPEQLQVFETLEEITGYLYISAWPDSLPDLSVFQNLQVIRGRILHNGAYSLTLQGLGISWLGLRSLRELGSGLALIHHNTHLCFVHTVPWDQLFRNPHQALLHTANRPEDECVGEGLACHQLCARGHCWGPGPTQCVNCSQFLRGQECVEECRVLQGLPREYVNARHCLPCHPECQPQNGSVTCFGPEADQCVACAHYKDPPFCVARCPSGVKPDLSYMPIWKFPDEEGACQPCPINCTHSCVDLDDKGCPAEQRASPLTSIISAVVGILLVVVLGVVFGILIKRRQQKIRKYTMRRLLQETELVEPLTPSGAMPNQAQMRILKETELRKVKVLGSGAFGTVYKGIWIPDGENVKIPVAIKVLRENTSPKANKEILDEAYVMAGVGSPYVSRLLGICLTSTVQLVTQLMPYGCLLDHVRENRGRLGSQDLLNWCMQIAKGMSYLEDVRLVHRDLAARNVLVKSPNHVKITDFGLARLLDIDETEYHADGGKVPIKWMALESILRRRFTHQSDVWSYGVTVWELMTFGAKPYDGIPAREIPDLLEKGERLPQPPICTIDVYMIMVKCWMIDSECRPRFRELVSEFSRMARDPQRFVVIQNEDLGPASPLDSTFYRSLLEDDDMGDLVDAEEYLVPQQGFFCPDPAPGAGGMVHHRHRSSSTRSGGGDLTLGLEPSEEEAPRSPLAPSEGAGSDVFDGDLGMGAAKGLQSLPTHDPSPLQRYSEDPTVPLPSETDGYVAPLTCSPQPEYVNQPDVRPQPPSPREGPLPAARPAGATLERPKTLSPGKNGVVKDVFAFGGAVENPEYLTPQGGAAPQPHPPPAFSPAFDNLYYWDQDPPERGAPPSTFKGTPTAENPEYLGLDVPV
Ba/F3 ERBB2 YVMA, sequence (P04626 with tags, fused parts or gaps DUP772-775): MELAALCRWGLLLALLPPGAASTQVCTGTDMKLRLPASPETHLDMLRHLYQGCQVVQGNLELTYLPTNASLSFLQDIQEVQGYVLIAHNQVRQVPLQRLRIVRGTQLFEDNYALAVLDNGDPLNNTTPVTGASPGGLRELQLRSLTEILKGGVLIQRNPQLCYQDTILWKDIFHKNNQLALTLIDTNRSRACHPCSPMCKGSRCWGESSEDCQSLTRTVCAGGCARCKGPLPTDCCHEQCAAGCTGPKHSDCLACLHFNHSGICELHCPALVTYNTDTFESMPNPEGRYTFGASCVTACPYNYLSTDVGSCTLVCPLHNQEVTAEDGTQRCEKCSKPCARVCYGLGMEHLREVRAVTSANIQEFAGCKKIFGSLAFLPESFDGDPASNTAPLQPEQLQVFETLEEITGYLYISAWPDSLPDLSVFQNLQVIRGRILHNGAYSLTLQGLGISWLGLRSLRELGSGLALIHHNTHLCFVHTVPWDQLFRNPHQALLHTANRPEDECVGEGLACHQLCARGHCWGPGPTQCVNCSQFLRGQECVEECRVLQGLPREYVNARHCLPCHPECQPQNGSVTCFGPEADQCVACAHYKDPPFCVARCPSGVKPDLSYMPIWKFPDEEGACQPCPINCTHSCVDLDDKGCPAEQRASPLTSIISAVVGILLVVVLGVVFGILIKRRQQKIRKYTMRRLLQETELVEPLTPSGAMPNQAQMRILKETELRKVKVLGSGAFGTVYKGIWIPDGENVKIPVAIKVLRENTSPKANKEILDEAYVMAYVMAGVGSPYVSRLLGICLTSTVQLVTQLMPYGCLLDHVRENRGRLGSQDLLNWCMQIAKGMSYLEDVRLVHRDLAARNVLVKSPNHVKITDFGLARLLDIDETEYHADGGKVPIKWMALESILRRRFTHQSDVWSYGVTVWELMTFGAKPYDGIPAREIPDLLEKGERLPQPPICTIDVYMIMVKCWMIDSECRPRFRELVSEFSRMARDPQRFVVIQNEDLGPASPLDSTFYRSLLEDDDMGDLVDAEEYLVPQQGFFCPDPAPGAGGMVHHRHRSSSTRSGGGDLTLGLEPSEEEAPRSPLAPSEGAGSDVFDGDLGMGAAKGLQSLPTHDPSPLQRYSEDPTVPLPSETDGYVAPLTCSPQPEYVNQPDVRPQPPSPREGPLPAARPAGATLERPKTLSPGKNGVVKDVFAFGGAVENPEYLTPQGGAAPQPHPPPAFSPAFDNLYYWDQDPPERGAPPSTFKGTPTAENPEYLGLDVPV
T1 sequence (P00533 25-1210): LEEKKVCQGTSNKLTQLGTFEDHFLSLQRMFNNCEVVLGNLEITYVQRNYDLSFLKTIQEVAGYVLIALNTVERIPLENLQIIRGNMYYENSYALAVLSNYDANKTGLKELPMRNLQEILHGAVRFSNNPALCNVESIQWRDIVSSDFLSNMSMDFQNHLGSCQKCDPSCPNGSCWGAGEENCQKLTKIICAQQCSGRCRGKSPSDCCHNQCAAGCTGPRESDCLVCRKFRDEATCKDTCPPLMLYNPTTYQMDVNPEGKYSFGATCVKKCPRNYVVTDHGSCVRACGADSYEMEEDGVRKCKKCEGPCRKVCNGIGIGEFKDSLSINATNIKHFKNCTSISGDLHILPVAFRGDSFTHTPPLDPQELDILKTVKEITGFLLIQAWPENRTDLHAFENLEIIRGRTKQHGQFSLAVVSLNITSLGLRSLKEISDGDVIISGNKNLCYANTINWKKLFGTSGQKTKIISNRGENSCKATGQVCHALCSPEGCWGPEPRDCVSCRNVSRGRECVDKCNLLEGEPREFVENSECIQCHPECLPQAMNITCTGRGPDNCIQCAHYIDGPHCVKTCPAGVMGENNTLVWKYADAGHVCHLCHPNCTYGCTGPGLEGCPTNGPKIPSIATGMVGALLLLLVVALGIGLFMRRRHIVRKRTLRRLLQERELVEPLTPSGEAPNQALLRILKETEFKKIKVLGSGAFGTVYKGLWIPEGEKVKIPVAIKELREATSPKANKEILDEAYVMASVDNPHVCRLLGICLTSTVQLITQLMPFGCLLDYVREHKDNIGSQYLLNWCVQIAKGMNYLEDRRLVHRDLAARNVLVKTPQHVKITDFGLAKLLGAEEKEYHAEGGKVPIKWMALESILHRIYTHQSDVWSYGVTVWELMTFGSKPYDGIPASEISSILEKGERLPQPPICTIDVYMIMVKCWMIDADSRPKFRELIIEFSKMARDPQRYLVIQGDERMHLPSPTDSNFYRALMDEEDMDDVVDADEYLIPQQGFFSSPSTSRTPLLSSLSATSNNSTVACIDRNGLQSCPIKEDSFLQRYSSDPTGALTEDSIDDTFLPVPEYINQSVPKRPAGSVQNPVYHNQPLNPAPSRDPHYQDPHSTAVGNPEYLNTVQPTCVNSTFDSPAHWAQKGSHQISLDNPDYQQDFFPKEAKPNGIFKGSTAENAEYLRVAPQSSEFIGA

Regarding `C=C(F)C(=O)N1CCN(c2ccc3ncnc(Nc4ccc(Oc5ccn6ncnc6c5)c(C)c4)c3n2)CC1` [Compound 13, 2-fluoro-1-(4-{4-[(3-methyl-4-{[1,2,4]triazolo[1,5-a]pyridin-7-yloxy}phenyl)amino]pyrido[3,2-d]pyrimidin-6-yl}piperazin-1-yl)prop-2-en-1-one], the GI50 on Ba/F3 ERBB2 YVMA worked out at 232 nM. Besides, the values for the IC50 in test [1] and in test [2] were above 10000 nM and 97.5 nM, respectively.
Taken in the same sequence, the figures for `C=CC(=O)N1CCN(c2ccc3ncnc(Nc4ccc(Oc5ccc6c(c5)ncn6C)c(C)c4)c3n2)CC1` [Compound 14, 1-{4-[4-({3-methyl-4-[(1-methyl-1,3-benzodiazol-5-yl)oxy]phenyl}amino)pyrido[3,2-d]pyrimidin-6-yl]piperazin-1-yl}prop-2-en-1-one] were 7.83 nM, 403 nM and 14.3 nM.
Taken in the same sequence, the figures for `C=CC(=O)N1C2CC1CN(c1ccc3ncnc(Nc4ccc(Oc5ccn6ncnc6c5)c(C)c4)c3n1)C2` [Compound 15, 1-(3-{4-[(3-methyl-4-{[1,2,4]triazolo[1,5-a]pyridin-7-yloxy}phenyl)amino]pyrido[3,2-d]pyrimidin-6-yl}-3,6-diazabicyclo[3.1.1]heptan-6-yl)prop-2-en-1-one] were 17.4 nM, 629 nM and 19.8 nM.
In the case of `C=CC(=O)N1CCCN(c2ccc3ncnc(Nc4ccc(Oc5ccn6ncnc6c5)c(C)c4)c3n2)CC1` [Compound 16, 1-(4-{4-[(3-methyl-4-{[1,2,4]triazolo[1,5-a]pyridin-7-yloxy}phenyl)amino]pyrido[3,2-d]pyrimidin-6-yl}-1,4-diazepan-1-yl)prop-2-en-1-one], at Ba/F3 ERBB2 YVMA, the GI50 was found to be 99.5 nM. For the same compound, the IC50 in test [1] came out at 8010 nM; in test [2] it was 30.6 nM.
Regarding `C=CC(=O)N1CC2CCC(C1)N2c1ccc2ncnc(Nc3ccc(Oc4ccn5ncnc5c4)c(C)c3)c2n1` [Compound 17, 1-(8-{4-[(3-methyl-4-{[1,2,4]triazolo[1,5-a]pyridin-7-yloxy}phenyl)amino]pyrido[3,2-d]pyrimidin-6-yl}-3,8-diazabicyclo[3.2.1]octan-3-yl)prop-2-en-1-one], the GI50 at Ba/F3 ERBB2 YVMA was determined as 5.91 nM. Besides, the values for the IC50 in test [1] and in test [2] were 179 nM and 20.1 nM, respectively.
The corresponding values for `C=CC(=O)N1C2CCC1CN(c1ccc3ncnc(Nc4ccc(Oc5ccn6ncnc6c5)c(C)c4)c3n1)C2` [Compound 18, 1-(3-{4-[(3-methyl-4-{[1,2,4]triazolo[1,5-a]pyridin-7-yloxy}phenyl)amino]pyrido[3,2-d]pyrimidin-6-yl}-3,8-diazabicyclo[3.2.1]octan-8-yl)prop-2-en-1-one] are 6.26 nM, 293 nM and 13.4 nM.
Taken in the same sequence, the figures for `C=CC(=O)N1CCC2(CC1)CN(c1ccc3ncnc(Nc4ccc(Oc5ccn6ncnc6c5)c(C)c4)c3n1)C2` [Compound 19, 1-(2-{4-[(3-methyl-4-{[1,2,4]triazolo[1,5-a]pyridin-7-yloxy}phenyl)amino]pyrido[3,2-d]pyrimidin-6-yl}-2,7-diazaspiro[3.5]nonan-7-yl)prop-2-en-1-one] were 176 nM, above 10000 nM and 98 nM.
The corresponding values for `C=CC(=O)N1CCC2(CCN(c3ccc4ncnc(Nc5ccc(Oc6ccn7ncnc7c6)c(C)c5)c4n3)C2)C1` (stereo not drawn) [Compound 20, 1-(7-{4-[(3-methyl-4-{[1,2,4]triazolo[1,5-a]pyridin-7-yloxy}phenyl)amino]pyrido[3,2-d]pyrimidin-6-yl}-2,7-diazaspiro[4.4]nonan-2-yl)prop-2-en-1-one] are 21 nM, above 10000 nM and 37.9 nM.
For `C=CC(=O)N1CCC2(C1)CN(c1ccc3ncnc(Nc4ccc(Oc5ccn6ncnc6c5)c(C)c4)c3n1)C2` [Compound 21, 1-(2-{4-[(3-methyl-4-{[1,2,4]triazolo[1,5-a]pyridin-7-yloxy}phenyl)amino]pyrido[3,2-d]pyrimidin-6-yl}-2,6-diazaspiro[3.4]octan-6-yl)prop-2-en-1-one], the GI50 at Ba/F3 ERBB2 YVMA was 9.76 nM. The figures for the IC50 in test [1] and in test [2] were 9420 nM and 12.1 nM, respectively.

Usually IC50 stands for the concentration needed to halve the response being measured.

The values are drawn from US20250136595A1, “ACYLATED HETEROCYCLIC QUINAZOLINE DERIVATIVES AS INHIBITORS OF ERBB2” (Enliven Inc., priority 2022, published 2025).
